Results from ChEMBL document CHEMBL5241052, “Dual-target kinase drug design: Current strategies and future directions in cancer therapy” (Eur J Med Chem, 2020).
pIC50: −log10 of the molar value. Blank lines part the entries; values can stand above or below the compound they belong to.

Legend:
4T1 = test: Antiproliferative activity against 4T1 cells (unknown origin); format: functional, cell-based; details: Mus musculus
MDA-MB-231 = test: Antiproliferative activity against MDA-MB-231 cells (unknown origin); format: functional, cell-based; details: Homo sapiens
[1] = target: T1, Epidermal growth factor receptor (Homo sapiens, UniProt P00533); test: Inhibition of human EGFR
T1 sequence (P00533 whole entry): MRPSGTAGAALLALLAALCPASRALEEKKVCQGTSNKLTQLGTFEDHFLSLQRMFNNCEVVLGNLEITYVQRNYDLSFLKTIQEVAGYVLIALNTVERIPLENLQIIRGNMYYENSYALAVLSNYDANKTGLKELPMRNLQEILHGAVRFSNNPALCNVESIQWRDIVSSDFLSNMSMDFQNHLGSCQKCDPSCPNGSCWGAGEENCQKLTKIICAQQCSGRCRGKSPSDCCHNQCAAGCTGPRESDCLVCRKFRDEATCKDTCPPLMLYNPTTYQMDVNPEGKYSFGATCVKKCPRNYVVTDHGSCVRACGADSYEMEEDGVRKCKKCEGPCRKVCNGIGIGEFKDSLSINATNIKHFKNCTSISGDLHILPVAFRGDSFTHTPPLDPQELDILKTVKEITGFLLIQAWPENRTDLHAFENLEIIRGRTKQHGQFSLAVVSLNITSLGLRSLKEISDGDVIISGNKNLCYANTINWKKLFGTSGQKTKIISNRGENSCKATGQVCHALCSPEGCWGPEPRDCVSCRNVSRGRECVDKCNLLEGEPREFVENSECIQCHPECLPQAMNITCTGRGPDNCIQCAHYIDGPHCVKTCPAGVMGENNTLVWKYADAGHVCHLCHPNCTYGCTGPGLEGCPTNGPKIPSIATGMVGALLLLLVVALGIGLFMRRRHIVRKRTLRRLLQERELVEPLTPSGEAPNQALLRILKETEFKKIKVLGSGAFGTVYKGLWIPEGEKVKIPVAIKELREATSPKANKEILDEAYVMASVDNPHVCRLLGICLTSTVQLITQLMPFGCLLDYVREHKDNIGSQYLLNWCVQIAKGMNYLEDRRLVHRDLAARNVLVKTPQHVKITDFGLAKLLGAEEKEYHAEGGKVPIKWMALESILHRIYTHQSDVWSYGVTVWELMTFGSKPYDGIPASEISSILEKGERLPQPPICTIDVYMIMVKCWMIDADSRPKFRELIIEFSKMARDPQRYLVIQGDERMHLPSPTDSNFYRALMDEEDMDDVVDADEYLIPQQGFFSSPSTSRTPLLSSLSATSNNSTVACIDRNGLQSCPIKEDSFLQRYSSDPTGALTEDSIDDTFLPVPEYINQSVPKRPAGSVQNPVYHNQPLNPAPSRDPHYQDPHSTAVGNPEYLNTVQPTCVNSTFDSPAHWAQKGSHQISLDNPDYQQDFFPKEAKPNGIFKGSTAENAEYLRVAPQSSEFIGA

[2] = target: Proto-oncogene tyrosine-protein kinase Src (Homo sapiens, UniProt P12931); test: Inhibition of Src (unknown origin)
Aurora kinase A = Aurora kinase A (Homo sapiens, UniProt O14965); test: Inhibition of AURA (unknown origin)
[3] = Antiproliferative activity against human C643 cells harboring Ras mutation assessed as cell growth inhibition at 5 uM by cell counting assay; format: functional
BCPAP = test: Antiproliferative activity against human BCPAP cells harboring BRAF V600E mutation assessed as cell growth inhibition at 5 uM by cell counting assay; format: functional
FTC-133 = test: Antiproliferative activity against human FTC-133 cells harboring PTEN mutation assessed as cell growth inhibition at 5 uM by cell counting assay; format: functional
TPC1 = test: Antiproliferative activity against human TPC1 cells harboring RET/PTC mutation assessed as cell growth inhibition at 5 uM by cell counting assay; format: functional
[4] = target: Serine/threonine-protein kinase mTOR (Homo sapiens, UniProt P42345); test: Inhibition of mTOR (unknown origin) by ELISA based kinase assay
[5] = Antiproliferative activity against human HTh7 cells harboring Ras mutation assessed as cell growth inhibition at 5 uM by cell counting assay; format: functional
SW-1736 = test: Antiproliferative activity against human SW-1736 cells harboring BRAF V600E mutation assessed as cell growth inhibition at 5 uM by cell counting assay; format: functional
[6] = Antiproliferative activity against human HTh104 cells harboring BRAF V600E mutation assessed as cell growth inhibition at 5 uM by cell counting assay; format: functional
HCT-116 = test: Antiproliferative activity against human HCT-116 cells at 10 uM by MTT assay; format: functional, cell-based
A-375 = test: Antiproliferative activity against human A-375 cells at 10 uM by MTT assay; format: functional, cell-based
MCF7 = test: Antiproliferative activity against human MCF7 cells at 10 uM by MTT assay; format: functional, cell-based
COLO 205 = test: Antiproliferative activity against human COLO 205 cells at 10 uM by MTT assay; format: functional, cell-based
A549 = test: Antiproliferative activity against human A549 cells at 10 uM by MTT assay; format: functional, cell-based
LoVo = test: Antiproliferative activity against human LoVo cells at 10 uM by MTT assay; format: functional, cell-based
[7] = target: Serine/threonine-protein kinase B-raf (Homo sapiens, UniProt P15056, V600E); test: Inhibition of human BRAF V600E mutant
[8] = target: Proto-oncogene tyrosine-protein kinase receptor Ret (Homo sapiens, UniProt P07949); test: Inhibition of RET (unknown origin) by invitro kinase assay
Chain of Proto-oncogene tyrosine-protein kinase receptor Ret (Homo sapiens, UniProt P07949) (P07949 whole entry): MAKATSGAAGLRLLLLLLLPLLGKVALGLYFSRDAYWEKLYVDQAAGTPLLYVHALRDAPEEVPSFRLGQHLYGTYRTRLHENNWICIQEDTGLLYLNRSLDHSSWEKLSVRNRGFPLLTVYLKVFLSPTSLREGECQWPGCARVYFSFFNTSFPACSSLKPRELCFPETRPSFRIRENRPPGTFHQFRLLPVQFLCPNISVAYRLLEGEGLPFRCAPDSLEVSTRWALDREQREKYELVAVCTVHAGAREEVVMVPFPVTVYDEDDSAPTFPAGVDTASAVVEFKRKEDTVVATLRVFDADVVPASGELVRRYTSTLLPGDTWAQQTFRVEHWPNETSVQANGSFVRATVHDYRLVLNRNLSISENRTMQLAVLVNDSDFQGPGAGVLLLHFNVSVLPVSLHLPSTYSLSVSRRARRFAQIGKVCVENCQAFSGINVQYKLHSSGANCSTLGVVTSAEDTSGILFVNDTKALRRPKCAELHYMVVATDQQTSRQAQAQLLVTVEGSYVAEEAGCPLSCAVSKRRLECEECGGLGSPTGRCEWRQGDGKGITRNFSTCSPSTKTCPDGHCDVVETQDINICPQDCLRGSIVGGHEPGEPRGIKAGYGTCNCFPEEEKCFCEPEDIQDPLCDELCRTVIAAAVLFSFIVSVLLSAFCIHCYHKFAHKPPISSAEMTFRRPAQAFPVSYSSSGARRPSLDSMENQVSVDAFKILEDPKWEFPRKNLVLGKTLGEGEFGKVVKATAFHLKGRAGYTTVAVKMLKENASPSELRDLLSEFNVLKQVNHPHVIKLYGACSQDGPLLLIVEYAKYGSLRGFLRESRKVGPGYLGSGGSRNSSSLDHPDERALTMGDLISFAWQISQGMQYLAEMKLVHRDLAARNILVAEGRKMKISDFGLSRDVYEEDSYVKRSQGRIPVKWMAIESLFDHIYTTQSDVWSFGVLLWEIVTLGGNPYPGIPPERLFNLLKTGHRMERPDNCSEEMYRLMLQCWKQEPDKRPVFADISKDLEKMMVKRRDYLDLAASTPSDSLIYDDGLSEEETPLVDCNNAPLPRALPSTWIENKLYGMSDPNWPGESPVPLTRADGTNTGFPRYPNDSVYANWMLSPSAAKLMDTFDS

[9] = target: Proto-oncogene tyrosine-protein kinase receptor Ret (Homo sapiens, UniProt P07949, V804M); test: Inhibition of RET V804M mutant (unknown origin) by invitro kinase assay
Chain of Proto-oncogene tyrosine-protein kinase receptor Ret (Homo sapiens, UniProt P07949, V804M) (P07949 29-1114 V804M limits assumed): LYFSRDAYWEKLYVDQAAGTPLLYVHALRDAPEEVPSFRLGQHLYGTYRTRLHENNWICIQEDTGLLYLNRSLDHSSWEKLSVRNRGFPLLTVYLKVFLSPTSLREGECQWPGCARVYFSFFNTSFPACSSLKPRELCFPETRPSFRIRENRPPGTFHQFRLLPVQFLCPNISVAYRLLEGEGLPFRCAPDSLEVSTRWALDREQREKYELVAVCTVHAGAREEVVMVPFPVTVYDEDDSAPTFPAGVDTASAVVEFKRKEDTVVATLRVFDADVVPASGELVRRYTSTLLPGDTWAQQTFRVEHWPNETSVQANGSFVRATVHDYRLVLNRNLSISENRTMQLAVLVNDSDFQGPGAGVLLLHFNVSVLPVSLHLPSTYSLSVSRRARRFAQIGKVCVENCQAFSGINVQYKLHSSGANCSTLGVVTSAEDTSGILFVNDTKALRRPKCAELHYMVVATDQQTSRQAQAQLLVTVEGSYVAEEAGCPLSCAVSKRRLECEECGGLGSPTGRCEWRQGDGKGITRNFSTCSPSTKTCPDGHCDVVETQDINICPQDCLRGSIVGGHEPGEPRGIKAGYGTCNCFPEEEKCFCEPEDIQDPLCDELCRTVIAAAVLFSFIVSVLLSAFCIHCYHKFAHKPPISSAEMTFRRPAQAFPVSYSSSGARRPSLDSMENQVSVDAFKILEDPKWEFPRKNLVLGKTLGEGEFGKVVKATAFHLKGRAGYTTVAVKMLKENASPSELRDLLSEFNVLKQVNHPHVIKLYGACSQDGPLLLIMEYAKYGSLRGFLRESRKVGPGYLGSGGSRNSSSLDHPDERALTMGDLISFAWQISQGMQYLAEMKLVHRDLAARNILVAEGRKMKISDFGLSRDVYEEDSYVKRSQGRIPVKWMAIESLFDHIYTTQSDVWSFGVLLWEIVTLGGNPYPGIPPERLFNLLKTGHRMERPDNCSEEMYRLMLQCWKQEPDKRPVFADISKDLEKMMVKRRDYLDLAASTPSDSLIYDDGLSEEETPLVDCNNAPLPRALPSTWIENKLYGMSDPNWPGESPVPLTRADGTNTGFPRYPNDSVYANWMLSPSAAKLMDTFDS

[10] = target: Vascular endothelial growth factor receptor 2 (Homo sapiens, UniProt P35968); test: Inhibition of VEGFR2 (unknown origin) by invitro kinase assay
Chain of Vascular endothelial growth factor receptor 2 (P35968 whole entry): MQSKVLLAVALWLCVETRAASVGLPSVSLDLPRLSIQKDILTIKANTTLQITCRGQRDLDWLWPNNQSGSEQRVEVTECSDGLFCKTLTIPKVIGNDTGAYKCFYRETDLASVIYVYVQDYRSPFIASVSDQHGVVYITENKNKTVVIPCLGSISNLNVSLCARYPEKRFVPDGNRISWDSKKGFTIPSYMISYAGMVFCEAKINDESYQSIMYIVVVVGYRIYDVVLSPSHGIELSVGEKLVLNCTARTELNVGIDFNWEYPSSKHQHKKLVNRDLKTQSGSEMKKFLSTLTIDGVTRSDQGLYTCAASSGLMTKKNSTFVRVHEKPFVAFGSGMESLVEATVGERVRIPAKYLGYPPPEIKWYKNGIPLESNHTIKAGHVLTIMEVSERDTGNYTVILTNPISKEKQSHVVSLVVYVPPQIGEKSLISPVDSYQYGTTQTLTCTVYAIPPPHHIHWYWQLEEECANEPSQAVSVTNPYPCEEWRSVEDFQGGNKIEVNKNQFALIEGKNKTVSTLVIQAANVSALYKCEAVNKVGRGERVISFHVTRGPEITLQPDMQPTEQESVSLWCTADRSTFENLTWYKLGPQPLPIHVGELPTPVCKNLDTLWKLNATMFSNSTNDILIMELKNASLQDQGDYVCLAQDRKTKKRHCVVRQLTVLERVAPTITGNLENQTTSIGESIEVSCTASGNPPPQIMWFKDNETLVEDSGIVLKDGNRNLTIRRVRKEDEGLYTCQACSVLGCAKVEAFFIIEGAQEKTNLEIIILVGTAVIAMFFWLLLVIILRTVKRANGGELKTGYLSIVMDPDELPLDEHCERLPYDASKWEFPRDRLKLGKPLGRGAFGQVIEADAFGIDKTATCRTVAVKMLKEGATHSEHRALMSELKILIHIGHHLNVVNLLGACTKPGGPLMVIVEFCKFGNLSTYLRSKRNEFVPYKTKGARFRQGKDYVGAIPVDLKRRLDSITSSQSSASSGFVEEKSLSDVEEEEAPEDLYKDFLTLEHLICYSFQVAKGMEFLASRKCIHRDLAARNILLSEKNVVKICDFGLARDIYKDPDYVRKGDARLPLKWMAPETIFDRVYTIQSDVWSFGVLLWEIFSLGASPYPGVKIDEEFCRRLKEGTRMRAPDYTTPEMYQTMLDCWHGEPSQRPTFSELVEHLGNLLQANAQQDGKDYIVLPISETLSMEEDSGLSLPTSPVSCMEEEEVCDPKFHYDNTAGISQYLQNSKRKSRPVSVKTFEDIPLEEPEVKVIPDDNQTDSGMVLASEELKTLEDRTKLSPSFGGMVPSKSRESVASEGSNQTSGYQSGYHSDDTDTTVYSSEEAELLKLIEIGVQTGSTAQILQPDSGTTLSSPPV

DU-145 = test: Antiproliferative activity against human DU-145 cells assessed as growth inhibition and measured after 96 hrs by micro plate reader analysis; format: functional, cell-based; details: DU-145, 96 h
MES-SA = test: Antiproliferative activity against human MES-SA cells assessed as growth inhibition and measured after 96 hrs by micro plate reader analysis; format: functional, cell-based
[11] = target: T1, Epidermal growth factor receptor; test: Inhibition of human EGFR phosphorylation by invitro enzyme assay

pIC50 (4T1): 5.25
pIC50 (MDA-MB-231): 5.13
pIC50 [1]: 6.21
pIC50 [2]: 5.96
Compound: CN(CCOC(=O)c1ccc(C(=O)Nc2ncnc3c2c(-c2ccc(Cl)cc2)nn3C(C)(C)C)nc1)Cc1ccc(C(=O)Nc2ccc3ncnc(Nc4cccc(Cl)c4)c3c2)cc1

pIC50 (HCT-116): 6.96
pIC50 (A-375): 7.00
pIC50 (MCF7): 6.30
pIC50 (COLO 205): 7.05
pIC50 (A549): 7.05
pIC50 (LoVo): 7.10
pIC50 [7]: 6.93
Compound: CN(c1nc(-c2cnc(N)nc2)nc(N2CCOCC2)n1)C1CCN(C(=O)c2ccccc2)CC1

pIC50 (DU-145): 4.95
pIC50 [11]: 6.99
Compound: COc1cccc(-c2cc(=O)c3ccccc3o2)c1NC(=O)OCCOC(=O)NCCN(C)CCN/N=N/c1ccc2c(Nc3cccc(Cl)c3)ncnc2c1
pIC50 (MES-SA): 4.61

The remaining lines, values behind:

Compound: Cc1cc(S(=O)(=O)Nc2ccc(/C=C3\SC(=O)N(CC4(C)CCCCC4)C3=O)cc2)ccc1[N+](=O)[O-]
pIC50 (Aurora kinase A): 7.46
GI50 [3]: 4510 nM
GI50 (BCPAP): 3790 nM
GI50 (FTC-133): 5900 nM
GI50 (TPC1): 7260 nM
pIC50 [4]: 5.08
GI50 [5]: 1360 nM
GI50 (SW-1736): 4210 nM
GI50 [6]: 3370 nM

Compound: O=C(Cc1ccc(-n2cnc3cc(-c4ccsc4)ccc32)cc1)Nc1cccc(C(F)(F)F)c1
pIC50 [8]: > 9.00
pIC50 [9]: > 9.00
pIC50 [10]: > 9.00
